Results on two compounds are retold here after patent publication US20230285489A1, “METHODS, COMPOSITIONS, AND KITS ADDRESSING DEPRESSED MOOD” (Centre for Addiction and Mental Health, priority 2014, published 2023).

The series can be described thus: Breast milk and plasma amino acid levels and tolerability after oral tyrosine or tryptophan. To be noted: for amount of free amino acid in breast milk: after oral supplementation. The method, then: Many amino acids and most medications freely cross into breast milk. […] The reason is that approximately 98% of tryptophan in breast milk is contained in proteins and peptides and that 99% of tyrosine in breast milk is contained in proteins and peptides. Different supplementation doses of oral tyrosine (0 g (none), 2, 5 or 10 grams) (n=6 each) or oral tryptophan (0 g (none), 2 or 4 grams) (n=6 each) were evaluated for resulting levels in breast milk.

As to `N[C@@H](Cc1c[nH]c2ccccc12)C(=O)O` [tryptophan, L-tryptophan], the “amount of free amino acid in breast milk” value is “did increase”. For the same compound, the “total tryptophan levels in breast milk” value (oral tryptophan 2 or 4 grams, n=6 each) was “no change”. Besides, under “tryptophan 4 gram level”, the adverse effect entry is reported as “nausea” and the “total tryptophan in breast milk” value is given as “did not increase”. Also, where the note is “tryptophan dose of 2 grams”, the “level in maternal plasma” value is reported as “significantly increased”, the tolerability result was “extremely well tolerated” and the “total tryptophan levels in breast milk” value is given as “did not have any effects”.

As to `N[C@@H](Cc1ccc(O)cc1)C(=O)O` [tyrosine, L-tyrosine], the “amount of free amino acid in breast milk” value is reported as “did increase”. Also, the “total tyrosine levels in breast milk” value (oral tyrosine 2, 5 or 10 grams, n=6 each) was “no change”. Besides, for the setting “tyrosine dose of 10 grams”, the “level in maternal plasma” value is reported as “significantly increased”, the tolerability entry is listed as “extremely well tolerated” and the “total tyrosine levels in breast milk” value is given as “did not significantly impact”.
